Reference: PMC5483439, “The Effect of Pungent and Tingling Compounds from Piper nigrum L. on Background K^+ Currents” (Frontiers in Pharmacology, 2017)

Key:
tongue surface = tested on: tongue surface; design: method as in Dawid et al., 2012; details: human, ref Dawid et al., 2012, cited from earlier work
hKCNK18 = target: T1, hKCNK18 (Homo sapiens, UniProt Q7Z418); assay: Two-electrode voltage clamp on Xenopus laevis oocytes expressing hKCNK18; assay type: cell-based; details: 1 mM
T1 construct: expressed in transfected cells; host or cells: Xenopus laevis oocytes injected with cRNA (plasmid pEXO, gift of Dr. P. Enyedi)
T1 sequence (Q7Z418 1-384): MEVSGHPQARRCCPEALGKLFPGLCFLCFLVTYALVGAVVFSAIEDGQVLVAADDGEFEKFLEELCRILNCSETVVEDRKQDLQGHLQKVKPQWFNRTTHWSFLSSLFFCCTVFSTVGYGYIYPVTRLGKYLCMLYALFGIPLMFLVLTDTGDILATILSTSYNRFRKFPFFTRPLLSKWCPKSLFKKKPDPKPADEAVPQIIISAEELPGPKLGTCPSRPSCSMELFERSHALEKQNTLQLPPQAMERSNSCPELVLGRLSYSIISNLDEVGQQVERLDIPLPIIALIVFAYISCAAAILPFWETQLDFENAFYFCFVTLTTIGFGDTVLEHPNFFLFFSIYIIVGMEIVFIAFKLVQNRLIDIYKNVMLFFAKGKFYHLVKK
Source text: (§1) Human KCNK3 (TASK-1, K2P3.1) cloned into the expression vector pIRES-CD8 was a gift from Dr. Fabrice Duprat (Institut National de la Santé et de la Recherche Médicale, Antipolis, France). Human KCNK18 (hTRESK, K2P18.1), cloned into the plasmid pEXO, was a gift from Dr. P. Enyedi (Semmelweis University, Budapest, Hungary). These plasmids were linearized with the restriction enzymes BamHI and XbaI, respectively, and then used as templates for in vitro transcription. Human KCNK9 (hTASK-3, K2P9.1) cloned into the expression vector pCR4-TOPO, was purchased from Imagenes (Berlin, Germany). The plasmid was linearized with the restriction enzyme SspI, to generate a linear cDNA template for in vitro transcription. mKCNK3 was isolated from mouse heart by standard procedures and inserted into pSGEM. mKCNK9 and mKCNK18 were kindly provided by Dr. D. Bayliss (University of Virginia, Charlottesville, VA, United States) and Prof. Dr. P. Enyedi (Semmelweis University, Budapest, Hungary). Both channels were subcloned into pSGEM. The pSGEM plasmids were subsequently linearized with the restriction enzyme PacI. The capped RNAs were synthesized in the presence of the capping analog m7G(5′)ppp(5′)G using the AmpliCap-T7 Message Maker kit (Epicentre, Madison, WI, United States). The cRNA was dissolved in nuclease-free water to obtain a final concentration of 100 ng/μL.
(§2) The expression in Xenopus laevis oocytes was essentially performed as previously described ([Beltrán et al., 2013]). Briefly, mature female Xenopus laevis frogs were anesthetized with 0.15% MS-222, and surgery was performed according to standard methods, where the extracted ovarian lobes were placed into Ca^2+-free Barth solution containing collagenase type II (Worthington Biochemical Corporation, Lakewood, NJ, United States) and kept for 90 min on a shaker at 40 rpm (room temperature). Healthy stage V and VI oocytes were selected for injection with cRNA coding for the proteins of interest. Thirty nanoliters of cRNA (100 ng/μL) of each channel were injected using a Microinjector Micro 4 ^TM (World Precision Instruments). […]

hKCNK9 = target: T2, hKCNK9 (Homo sapiens, UniProt Q9NPC2); assay: Two-electrode voltage clamp on Xenopus laevis oocytes expressing hKCNK9; assay type: cell-based; details: 1 mM
T2 construct: host or cells: Xenopus laevis oocytes injected with cRNA (plasmid pCR4-TOPO)
T2 sequence (Q9NPC2 whole entry): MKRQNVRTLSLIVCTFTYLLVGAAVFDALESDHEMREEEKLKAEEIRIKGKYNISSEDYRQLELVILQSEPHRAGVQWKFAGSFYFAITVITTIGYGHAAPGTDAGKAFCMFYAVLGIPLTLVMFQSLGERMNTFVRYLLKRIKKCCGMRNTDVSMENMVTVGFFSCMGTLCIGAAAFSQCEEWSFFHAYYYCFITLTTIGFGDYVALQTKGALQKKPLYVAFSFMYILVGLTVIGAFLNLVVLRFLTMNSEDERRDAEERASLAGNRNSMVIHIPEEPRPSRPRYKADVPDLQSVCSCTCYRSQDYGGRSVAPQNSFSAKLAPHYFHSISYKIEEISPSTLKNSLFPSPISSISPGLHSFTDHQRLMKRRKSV
Source text: as §1
as §2, with “Instruments). After injection, the oocytes were kept in ND96 (96 mM NaCl; 2 mM KCl; 1.8 mM CaCl2; 1 mM MgCl2; 2.5 mM Sodium pyruvate; 10 mM, HEPES [4-(2-hydroxyethyl)-1-piperazineethanesulfonic acid), pH 7.4]. The measurements were performed 24 to 72 h after injection. The oocytes were placed in a 100 μL chamber that was perfused with frog Ringer’s solution (115 mM NaCl; 2.5 mM KCl; 1.8 mM CaCl2, and 10 mM HEPES, pH 7.2). The substances were dissolved in this solution before being manually applied to the oocytes using an automatic pipette (Research pro, Eppendorf, Germany). The application time was usually three ramps (approximately 10 s).” for “Instruments).”

hKCNK3 = target: T3, hKCNK3 (Homo sapiens, UniProt O14649); assay: Two-electrode voltage clamp on Xenopus laevis oocytes expressing hKCNK3; assay type: cell-based
T3 construct: expressed in transfected cells; host or cells: Xenopus laevis oocytes injected with cRNA (plasmid pIRES-CD8, gift of Dr. Fabrice Duprat)
T3 sequence (O14649 whole entry): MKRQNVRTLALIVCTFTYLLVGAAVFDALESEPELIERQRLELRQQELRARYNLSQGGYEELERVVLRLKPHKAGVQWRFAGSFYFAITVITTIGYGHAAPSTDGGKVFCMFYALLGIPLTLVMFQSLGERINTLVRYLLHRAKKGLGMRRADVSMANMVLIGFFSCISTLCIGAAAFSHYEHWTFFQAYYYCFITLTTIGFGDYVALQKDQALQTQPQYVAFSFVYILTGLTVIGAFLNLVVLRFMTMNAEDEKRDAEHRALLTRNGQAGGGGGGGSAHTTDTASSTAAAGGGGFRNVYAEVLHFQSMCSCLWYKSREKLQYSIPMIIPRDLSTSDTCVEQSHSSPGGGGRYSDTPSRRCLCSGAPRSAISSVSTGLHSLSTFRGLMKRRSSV
Source text: as §1
The expression in Xenopus laevis oocytes was essentially performed as previously described ([Beltrán et al., 2013]). Briefly, mature female Xenopus laevis frogs were anesthetized with 0.15% MS-222, and surgery was performed according to standard methods, where the extracted ovarian lobes were placed into Ca^2+-free Barth solution containing collagenase type II (Worthington Biochemical Corporation, Lakewood, NJ, United States) and kept for 90 min on a shaker at 40 rpm (room temperature). Healthy stage V and VI oocytes were selected for injection with cRNA coding for the proteins of interest. Thirty nanoliters of cRNA (100 ng/μL) of each channel were injected using a Microinjector Micro 4 ^TM (World Precision Instruments). After injection, the oocytes were kept in ND96 (96 mM NaCl; 2 mM KCl; 1.8 mM CaCl2; 1 mM MgCl2; 2.5 mM Sodium pyruvate; 10 mM, HEPES [4-(2-hydroxyethyl)-1-piperazineethanesulfonic acid), pH 7.4]. The measurements were performed 24 to 72 h after injection. The oocytes were placed in a 100 μL chamber that was perfused with frog Ringer’s solution (115 mM NaCl; 2.5 mM KCl; 1.8 mM CaCl2, and 10 mM HEPES, pH 7.2). The substances were dissolved in this solution before being manually applied to the oocytes using an automatic pipette (Research pro, Eppendorf, Germany). The application time was usually three ramps (approximately 10 s). For recording, a Turbo Tec-03x (npi electronic GmbH, Tamm, Germany) amplifier was used, with an acquisition rate of 1000 Hz and a low pass filter of 20 Hz. Borosilicate glass capillaries were pulled with a Kopf vertical pipette puller. The pulled glass capillaries were filled with 3 M KCl.
A ramp series protocol was used to evaluate the activity of KCNK channels as previously described ([Beltrán et al., 2013]). Briefly, voltage ramps from –100 mV to + 50 mV ([…]) followed by a constant of +50 mV (150 ms) were applied at a time interval of 2 s. […] This value was then normalized to the average obtained from three ramps prior to the application. In most cases, the currents elicited by this voltage-clamp ramp series protocol were more than ten times larger than the background currents observed in uninjected oocytes, while also presenting the described outward rectification under physiological concentrations of intracellular and extracellular K^+ ([Goldstein et al., 2001]; [Enyedi and Czirják, 2010]). Due to these characteristics, no leakage subtraction was considered necessary. Oocytes not fulfilling these characteristics were not considered for data analysis. […]

**Q.** For `CC(C)CNC(=O)/C=C/C=C/c1ccc2c(c1)OCO2` [1c, piperlonguminine], which pungent threshold concentration (tongue surface; filter paper on tongue) is on record?
**A.** Its pungent threshold concentration is 10.4 nmol/cm^2.

**Q.** What about the “threshold for oral pungency” value (tongue surface) of the same compound?
**A.** The value was 0.01 μmol/cm^2.

**Q.** And the “effect on basal activity of hKCNK18” value (hKCNK18)?
**A.** Its value is “decrease in their basal activity”.

**Q.** What about the “effect on basal activity of hKCNK9” value (hKCNK9) of the same compound?
**A.** The value was “decrease in their basal activity”.

**Q.** What about the “effect on basal activity of hKCNK3” value (hKCNK3; 1 mM, Xenopus oocytes) of the same compound?
**A.** The value was “decrease in their basal activity”.

**Q.** What about the IC50 (hKCNK3; Xenopus oocytes, current at +50 mV normalized to pre-application, read-out: IC50 on hKCNK3) of the same compound?
**A.** Its IC50 is 113 ± 79.5 µM.

**Q.** What about the “% of basal activity after saturating concentrations” value (hKCNK3; hKCNK3 in Xenopus oocytes) of the same compound?
**A.** The value was 50 ± 14%.
